Results as given in patent US8546443B2, “Benzylic oxindole pyrimidines” (Boehringer Ingelheim International GmbH, priority 2010, dated 2013).

How the values were obtained:
[1] = test system: TC-71 (Ewing's sarcoma) cells; test: Cell proliferation assay, TC-71 (Alamar Blue); type: cell-based; settings: 72 h with compound, EC50 ranges as class symbols
Experimental: Cell Proliferation Assays
Compounds were tested for their anti-proliferative effects in the TC-71 (Ewing's sarcoma) and HCT 116 (colorectal carcinoma) cancer cell lines in vitro. Published scientific data has described that interference with the Insulin-like Growth Factor-1 Receptor (IGF-1R) signaling pathway reduces the proliferation of TC-71 cells. Therefore TC-71 cells served as a positive control cell line for monitoring the activity of compounds against IGF-1R-mediated cell proliferation. […] Therefore the HCT 116 cell line served as a negative control.
2000 TC-71 cells or 1000 HCT 116 cells were seeded per well in 180 μL IMDM+10% foetal calf serum (FCS)+ penicillin/streptomycin into 96-well microtitre plates. The plates were placed in a cell culture incubator (37° C. in a humidified atmosphere of […]/5 CO2) overnight. The following day, serial dilutions of compounds, prepared in duplicates, were transferred onto the cell layers (controls without compound). The cells were cultivated for a further 72 h in the cell culture incubator. 20 μL of Alamar Blue™ (Serotec Ltd, Düsseldorf, Germany) was added to each well and the plates incubated for 7 h in the cell culture incubator. Fluorescence (extinction wavelength of 544 nm and emission at 590 nm) was then measured and the normalized data fitted by iterative calculation with a sigmoidal curve analysis program (Graph Pad Prism) with a variable Hill slope to determine the IC50 values.

[2] = target: T1, cytoplasmic kinase domain of human IGF-1R (IGF-1R-GST) (Homo sapiens, UniProt P08069); test: Insulin-like growth factor-1 receptor (IGF-1R) kinase assay (DELFIA); type: biochemical; settings: IGF-1R-GST kinase activity, read-out: IGF1R IC50
T1 construct: cytoplasmic kinase domain of human IGF-1R (amino acids 964-1370); GST (glutathione-S-transferase); made in house; host or cells: High Five insect cells (Invitrogen)
In short: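 GST-tagged IGF-1R cytoplasmic kinase domain phosphorylates pEY with biotinylated pEY for 40 min at RT; EDTA stop. Product captured on streptavidin, detected with europium anti-phosphotyrosine antibody by DELFIA time-resolved fluorescence; IC50 from inhibition curves.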

T1 sequence (P08069 964-1367 limits assumed): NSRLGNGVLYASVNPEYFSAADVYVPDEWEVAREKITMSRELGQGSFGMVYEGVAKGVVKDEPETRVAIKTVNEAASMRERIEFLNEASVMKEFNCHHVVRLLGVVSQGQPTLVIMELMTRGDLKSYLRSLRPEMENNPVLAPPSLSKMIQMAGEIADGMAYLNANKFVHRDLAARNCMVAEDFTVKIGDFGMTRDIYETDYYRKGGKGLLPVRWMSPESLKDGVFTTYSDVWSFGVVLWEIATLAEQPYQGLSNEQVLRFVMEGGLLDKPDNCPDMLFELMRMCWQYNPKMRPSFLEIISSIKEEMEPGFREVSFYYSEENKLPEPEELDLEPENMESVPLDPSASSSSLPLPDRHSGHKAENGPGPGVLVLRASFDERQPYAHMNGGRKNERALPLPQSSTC

SMILES	EC50 [1] [nM]	IC50 [2] [nM]
CC1(C)C(=O)Nc2cccc(CNc3nc(Nc4ccc(C5CCCNC5)cc4)ncc3Br)c21 (racemic) [Example I-238]	50 to 250	1
CNC1(C(=O)N2CCCC(c3ccc(Nc4ncc(Br)c(NCc5cccc6c5C(C)(C)C(=O)N6)n4)c(C)c3)C2)CC1 (racemic) [Example I-291]	50 to 250	6
COc1cc(C2CCCN(CC(C)(C)O)C2)ccc1Nc1ncc(C(F)(F)F)c(NCc2cccc3c2C(C)(C)C(=O)N3)n1 (racemic) [Example I-301]	< 50	1.6
Cc1cc(C2CCCN(CC(C)(C)O)C2)ccc1Nc1ncc(C(F)(F)F)c(NCc2cccc3c2C(C)(C)C(=O)N3)n1 (racemic) [Example I-306]	< 50	1
Cc1cc(C2CCCN(CC(O)C(F)(F)F)C2)ccc1Nc1ncc(Br)c(NCc2cccc3c2C(C)(C)C(=O)N3)n1 (racemic) [Example I-316]	50 to 250	2
Cc1cc(C2CCCN(CC(C)(C)O)C2)ccc1Nc1ncc(Br)c(NCc2cccc3c2C(C)(C)C(=O)N3)n1 (racemic) [Example I-318]	< 50	0.4
COc1cc(C2CCCN(CC(C)(C)O)C2)ccc1Nc1ncc(Br)c(NCc2cccc3c2C(C)(C)C(=O)N3)n1 (racemic) [Example I-322]	< 50	0.5
CC1(C)C(=O)Nc2cccc(CNc3nc(Nc4ccc(C5CCCN(CC(O)C(F)(F)F)C5)cc4)ncc3Br)c21 (racemic) [Example I-325]	50 to 250	2
COc1cc(C2CCCN(CC(C)(C)O)C2)ccc1Nc1ncc(Cl)c(NCc2cccc3c2C(C)(C)C(=O)N3)n1 (racemic) [Example I-327]	< 50	1
Cc1cc(C2CCCN(CC(C)(C)O)C2)ccc1Nc1ncc(Cl)c(NCc2cccc3c2C(C)(C)C(=O)N3)n1 (racemic) [Example I-328]	< 50	1
Cc1cc(C2CCCN(CC(O)C(F)(F)F)C2)ccc1Nc1ncc(Cl)c(NCc2cccc3c2C(C)(C)C(=O)N3)n1 (racemic) [Example I-329]	< 50	2
CC1(C)C(=O)Nc2cccc(CNc3nc(Nc4ccc(C5CCCN(CC(O)C(F)(F)F)C5)cc4)ncc3Cl)c21 (racemic) [Example I-333]	250 to 3000	2
COCCN1CCCC(c2ccc(Nc3ncc(C(F)(F)F)c(NCc4cccc5c4C(C)(C)C(=O)N5)n3)c(OC)c2)C1 (racemic) [Example I-350]	< 50	0.5
COc1cc(C2CCCN(CCO)C2)ccc1Nc1ncc(C(F)(F)F)c(NCc2cccc3c2C(C)(C)C(=O)N3)n1 (racemic) [Example I-351]	< 50	0.5
Cc1cc(C2CCCN(CCO)C2)ccc1Nc1ncc(C(F)(F)F)c(NCc2cccc3c2C(C)(C)C(=O)N3)n1 (racemic) [Example I-354]	< 50	1
COCCN1CCCC(c2ccc(Nc3ncc(C(F)(F)F)c(NCc4cccc5c4C(C)(C)C(=O)N5)n3)c(C)c2)C1 (racemic) [Example I-356]	< 50	0.8
COCCN1CCCC(c2ccc(Nc3ncc(Br)c(NCc4cccc5c4C(C)(C)C(=O)N5)n3)cc2)C1 (racemic) [Example I-357]	50 to 250	0.7
CC1(C)C(=O)Nc2cccc(CNc3nc(Nc4ccc(C5CCCN(CCO)C5)cc4)ncc3Br)c21 (racemic) [Example I-358]	< 50	0.7
COCCN1CCCC(c2ccc(Nc3ncc(Br)c(NCc4cccc5c4C(C)(C)C(=O)N5)n3)c(C)c2)C1 (racemic) [Example I-359]	< 50	0.5
COCCN1CCCC(c2ccc(Nc3ncc(Br)c(NCc4cccc5c4C(C)(C)C(=O)N5)n3)c(OC)c2)C1 (racemic) [Example I-360]	< 50	0.6
COc1cc(C2CCCN(CCO)C2)ccc1Nc1ncc(Br)c(NCc2cccc3c2C(C)(C)C(=O)N3)n1 (racemic) [Example I-361]	< 50	
Cc1cc(C2CCCN(CCO)C2)ccc1Nc1ncc(Br)c(NCc2cccc3c2C(C)(C)C(=O)N3)n1 (racemic) [Example I-364]	< 50	0.6
CNC(=O)CN1CCCC(c2ccc(Nc3ncc(Br)c(NCc4cccc5c4C(C)(C)C(=O)N5)n3)cc2)C1 (racemic) [Example I-365]	50 to 250	1
CNC(=O)CN1CCCC(c2ccc(Nc3ncc(Br)c(NCc4cccc5c4C(C)(C)C(=O)N5)n3)c(C)c2)C1 (racemic) [Example I-366]	50 to 250	2
